Laboratory results reported in patent US20100093795A1, “Piperidine Derivative Used for Treating Chemokine Receptor 5 Mediated Diseases” (priority 2006, published 2010).

Experiment: Rat pharmacokinetics after intravenous and oral dosing (Example 3)
Format: in vivo
Conditions: Alderley Park Han Wistar; male rat (Han Wistar), oral 2 mg/kg vs intravenous 2 mg/kg, whole blood; read-out: F (bioavailability)
Procedure: The rat pharmacokinetic (PK) parameters blood clearance (CL), volume of distribution (Vdss) and half life (t½) are calculated by determining the concentration (exposure) of test compound in whole blood samples taken from rats at various, defined time points subsequent to the intra-venous dosing (administration) of formulated test compound. The rat PK parameter bioavailability (F) is calculated by determining the concentration (exposure) of test compound in whole blood samples taken from rats at various, defined time-points subsequent to the oral dosing (administration) of formulated test compound and then by comparison of the ratio of the dose normalized total oral exposure (AUCpo) with the dose normalized total intra-venous exposure (AUCiv). Fraction absorbed (Fabs) is a secondary PK parameter that is often calculated from a knowledge of the clearance (CL) and bioavailability (F) of a test compound. […]
Calibration standard samples are prepared by addition of known amounts of test compound to blank diluted (1:1) blood samples. […] Following centrifugation, sample and calibration standard supernatants are analysed for test compound concentration by HPLC with MS/MS (triple quad mass spectrometry) detection. Quantification of test compound concentrations in the blood samples taken from the rats is achieved by reference to a standard curve constructed from the calibration standard samples. […]

Row | Compound | bioavailability [%]
1 | CCc1nnc(C(C)C)n1C1CCN([C@H](C)C[C@@H](c2cc(F)cc(F)c2)C2CCN(S(C)(=O)=O)CC2)CC1 (single isomer, unassigned) | 28
2 | Cc1nnc(C(C)C)n1C1CCN(C(C)C[C@@H](c2cc(F)cc(F)c2)C2CCN(S(C)(=O)=O)CC2)CC1 (single isomer, unassigned) [Comparator Compound A] | 1
